Data: ChEMBL document CHEMBL1148263, “Solid-phase synthesis of kojic acid-tripeptides and their tyrosinase inhibitory activity, storage stability, and toxicity” (Bioorg Med Chem Lett, 2004)

What was measured:
Assay type in all cases: functional, Mus musculus
[1] = Cytotoxicity of compound against Melan-a cells determined as percent cell survival at 100 ppm
[2] = Cytotoxicity of compound against Melan-a cells determined as percent cell survival at 1 ppm
[3] = Cytotoxicity of compound against Melan-a cells determined as percent cell survival at 10 ppm

Structure (SMILES)	Cell survival [1]	Cell survival [2]	Cell survival [3]
O=c1cc(CO)occ1O [KOJIC ACID]	86.92%	91.75%	92.36%
O=C(N[C@@H](Cc1ccccc1)C(=O)N[C@@H](Cc1c[nH]c2ccccc12)C(=O)N[C@@H](Cc1ccc(O)cc1)C(=O)O)OCc1cc(=O)c(O)co1	128.08%	125.51%	128.73%
O=C(N[C@@H](Cc1ccccc1)C(=O)N[C@@H](Cc1ccccc1)C(=O)N[C@@H](Cc1ccc(O)cc1)C(=O)O)OCc1cc(=O)c(O)co1	104.36%	91.62%	94.66%
NCCCC[C@H](NC(=O)OCc1cc(=O)c(O)co1)C(=O)N[C@@H](CCC(=O)O)C(=O)N[C@@H](Cc1ccc(O)cc1)C(=O)O	100.81%	98.38%	98.78%
O=C(N[C@@H](Cc1ccccc1)C(=O)N[C@@H](Cc1ccc(O)cc1)C(=O)N[C@@H](Cc1ccc(O)cc1)C(=O)O)OCc1cc(=O)c(O)co1	124.4%	124.4%	128.62%
